Experimental data reported in patent US8293788B2, “2-phenylpropionic acid derivatives and pharmaceutical compositions containing them” (priority 2004, dated 2012).

tested on: human PMNs chemotaxis induced by IL-8; test: IL-8 induced PMN chemotaxis assay; format: cell-based; conditions: compound at 10^−9M, read-out: PMN migration by IL-8 % of inhibition (10^−9M)
Experimental: (§1) The compounds of the invention of formula (I) were evaluated in vitro for their ability to inhibit chemotaxis of polymorphonucleate leukocytes (hereinafter referred to as PMNs) and monocytes induced by the fractions of IL-8 and GRO-α and C5a. For this purpose, in order to isolate the PMNs from heparinized human blood, taken from healthy adult volunteers, mononucleates were removed by means of sedimentation on dextran (according to the procedure disclosed by W. I. Ming et al., J. Immunol., 138, 1469, 1987) and red blood cells by a hypotonic solution. The cell vitality was calculated by exclusion with Trypan blue, whilst the ratio of the circulating polymorphonucleates was estimated on the cytocentrifugate after staining with Diff Quick.
In the IL-8 induced chemotaxis assay human recombinant IL-8 (Pepro Tech) was used as stimulating agents in the chemotaxis experiments: the lyophilized protein was dissolved in a volume of HBSS containing 0.2% bovin serum albumin (BSA) so thus to obtain a stock solution having a concentration of 10^−5 M to be diluted in HBSS to a concentration of 10^−9 M, for the chemotaxis assays.
(§2) In the chemotaxis experiments, the PMNs were incubated with the compounds of the invention of formula (I) for 15′ at 37° C. in an atmosphere containing 5% CO2.
(§3) During the chemotaxis assay (according to W. Falket et al., J. Immunol. Methods, 33, 239, 1980) PVP-free filters with a porosity of 5 μm and microchambers suitable for replication were used.
(§4) The compounds of the invention in formula (I) were evaluated at a concentration ranging between 10^−6 and 10^−10 M; for this purpose they were added, at the same concentration, both to the lower pores and the upper pores of the microchamber. Evaluation of the ability of the compounds of the invention of formula (I) to inhibit the chemotaxis of human monocytes was carried out according to the method disclosed by Van Damme J. et al. (Eur. J. Immunol., 19, 2367, 1989).

`C[C@@H](C(N)=O)c1ccc(OS(=O)(=O)C(F)(F)F)cc1` and `C[C@@H](C(=O)[N-]S(C)(=O)=O)c1ccc(OS(=O)(=O)C(F)(F)F)cc1.[Na+]` are within error of each other in inhibition at 0.001 µM: 64 ± 2% for the first, 58 ± 9% for the second.

`CC(C)Cc1ccc([C@@H](C)C(N)=O)cc1` [reference compound] and `CC(C)Cc1ccc([C@@H](C)C(=O)NS(C)(=O)=O)cc1` [reference compound] are within error of each other in inhibition at 0.001 µM: 57 ± 12% for the first, 50 ± 12% for the second.

`C[C@@H](C(=O)NCCCN1CCCC1)c1ccc(OS(=O)(=O)C(F)(F)F)cc1.Cl` and `C[C@@H](C(=O)NCCN1CCCC1)c1ccc(OS(=O)(=O)C(F)(F)F)cc1.Cl` are within error of each other in inhibition at 0.001 µM: 51 ± 13% for the first, 52 ± 12% for the second.

Work on `CC(C)Cc1ccc([C@@H](C)C(=O)NCCCN2CCCCC2)cc1` [reference compound] yielded an inhibition at 0.001 µM of 44 ± 5%.

tested on: GRO-α induced PMN chemotaxis; test: GRO-α induced PMN chemotaxis assay; format: cell-based; conditions: compound at 10^−8M; human PMNs; read-out: PMN migration by GROα % of inhibition (10^−8M)
Experimental: as §1
GRO-α induced chemotaxis inhibition was evaluated in an analogous assay.
as §2, §3, §4

`C[C@@H](C(N)=O)c1ccc(OS(=O)(=O)C(F)(F)F)cc1` and `C[C@@H](C(=O)[N-]S(C)(=O)=O)c1ccc(OS(=O)(=O)C(F)(F)F)cc1.[Na+]` are the same in inhibition at 0.01 µM: 61 ± 3% for the first, 61 ± 6% for the second.

`CC(C)Cc1ccc([C@@H](C)C(N)=O)cc1` [reference compound] and `CC(C)Cc1ccc([C@@H](C)C(=O)NS(C)(=O)=O)cc1` [reference compound] are the same in inhibition at 0.01 µM: 10 ± 7% for the first, 10 ± 18% for the second.

In the case of `CC(C)Cc1ccc([C@@H](C)C(=O)NCCCN2CCCCC2)cc1` [reference compound], the inhibition at 0.01 µM is reported as 39 ± 10%.

same assay, conditions: tested at 10^−6M; human PMNs

In the case of `C[C@@H](C(=O)NCCCN1CCCC1)c1ccc(OS(=O)(=O)C(F)(F)F)cc1.Cl`, the “PMN migration by GROα % of inhibition” value is reported as “Inactive^#”.
For `C[C@@H](C(=O)NCCN1CCCC1)c1ccc(OS(=O)(=O)C(F)(F)F)cc1.Cl`, the “PMN migration by GROα % of inhibition” value was “Inactive^#”.

tested on: C5a induced PMNs chemotaxis; test: C5a induced PMN chemotaxis assay; format: cell-based; conditions: compound at 10^−8M; human PMNs; read-out: PMN migration by C5a % of inhibition (10^−8M)
Experimental: as §1
In the C5a induced chemotaxis essay the fractions hrC5a and hrC5a-desArg (Sigma) were used as stimulating agents in chemotaxis experiments, obtaining practically identical results, Lyophilized C5a was dissolved in a volume of HBSS containing 0.2% BSA so as to obtain a stock solution having a concentration of 10^−5 M, to be diluted in HBSS to a concentration of 10^−9 M, for the chemotaxis assays.
as §2
The chemotactic activity of the C5a was evaluated on human circulating polymorphonucleates (PMNs) resuspended in HBSS at a concentration of 1.5×10^6 PMNs per ml.
as §3, §4

`C[C@@H](C(=O)NCCCN1CCCC1)c1ccc(OS(=O)(=O)C(F)(F)F)cc1.Cl` and `C[C@@H](C(=O)NCCN1CCCC1)c1ccc(OS(=O)(=O)C(F)(F)F)cc1.Cl` are within error of each other in inhibition at 0.01 µM: 67 ± 10% for the first, 65 ± 18% for the second.

For `CC(C)Cc1ccc([C@@H](C)C(=O)NCCCN2CCCCC2)cc1` [reference compound], the inhibition at 0.01 µM was 55 ± 6%.

same assay, conditions: tested at 10^−6M; human PMNs

In the case of `C[C@@H](C(N)=O)c1ccc(OS(=O)(=O)C(F)(F)F)cc1`, the “PMN migration by C5a % of inhibition” value is reported as “Inactive^#”.
For `CC(C)Cc1ccc([C@@H](C)C(N)=O)cc1` [reference compound], the “PMN migration by C5a % of inhibition” value was “Inactive^#”.
For `CC(C)Cc1ccc([C@@H](C)C(=O)NS(C)(=O)=O)cc1` [reference compound], the “PMN migration by C5a % of inhibition” value was “Inactive^#”.
With `C[C@@H](C(=O)[N-]S(C)(=O)=O)c1ccc(OS(=O)(=O)C(F)(F)F)cc1.[Na+]` the “PMN migration by C5a % of inhibition” value was “Inactive^#”.

tested on: not listed separately; test: Protein binding in rat plasma (ultrafiltration); format: in vitro ADME; conditions: 37° C.
Experimental: Protein Binding was determined as follows: Duplicate rat plasma samples of each compound at 50 μg/mL concentration were incubated at 37° C. for 20 minutes under gentle shaking. Then samples were ultrafiltrated through Centrifree® micropartition devices by centrifugation at 1500 g for 15 minutes. The ultrafiltrate was subjected to HPLC-MS/MS quantitative analysis (Column Luna C18, 150×2 mm ID 5 μm (Phenomenex), mobile phase: eluent A) 0.02M HCOO^−NH4^+ (pH 4.3 with HCOOH); eluent B) CH3OH).

Compared with `C[C@@H](C(N)=O)c1ccc(OS(=O)(=O)C(F)(F)F)cc1`, `C[C@@H](C(=O)[N-]S(C)(=O)=O)c1ccc(OS(=O)(=O)C(F)(F)F)cc1.[Na+]` is lower in fraction unbound at 20 min, 50 μg/mL: 0.062 for the first, 0.01 for the second.

Compared with `CC(C)Cc1ccc([C@@H](C)C(N)=O)cc1` [reference compound], `CC(C)Cc1ccc([C@@H](C)C(=O)NS(C)(=O)=O)cc1` [reference compound] is lower in fraction unbound at 20 min, 50 μg/mL: 0.016 for the first, 0.0002 for the second.

Going from `C[C@@H](C(=O)NCCCN1CCCC1)c1ccc(OS(=O)(=O)C(F)(F)F)cc1.Cl` to `C[C@@H](C(=O)NCCN1CCCC1)c1ccc(OS(=O)(=O)C(F)(F)F)cc1.Cl`, the fraction unbound at 20 min, 50 μg/mL falls from 0.359 to 0.296.

For `CC(C)Cc1ccc([C@@H](C)C(=O)NCCCN2CCCCC2)cc1` [reference compound], the fraction unbound at 20 min, 50 μg/mL was 0.15.

tested on: not listed separately; test: Pharmacokinetic profile in male mice after intravenous and oral administration; format: in vivo; conditions: mouse, plasma
Experimental: The pharmacokinetic profile (t1/2, oral bioavailability, etc) of claimed compounds was evaluated in male mice after intravenous and oral administration. The pharmacokinetic analysis was performed using compounds plasmatic concentrations at different times. The data were evaluated by Kinetica 2000™, Version 3.0 Software [InnaPhase Corporation, World headquarters, 1700 Race Street, Philadelphia, Pa. 19103 USA].

Going from `C[C@@H](C(N)=O)c1ccc(OS(=O)(=O)C(F)(F)F)cc1` to `C[C@@H](C(=O)[N-]S(C)(=O)=O)c1ccc(OS(=O)(=O)C(F)(F)F)cc1.[Na+]`, the half-life rises from 2.3 h to 24.7 h (11-fold).

`CC(C)Cc1ccc([C@@H](C)C(N)=O)cc1` [reference compound] and `CC(C)Cc1ccc([C@@H](C)C(=O)NS(C)(=O)=O)cc1` [reference compound] are the same in half-life: 0.4 h for the first, 0.4 h for the second.

`C[C@@H](C(=O)NCCCN1CCCC1)c1ccc(OS(=O)(=O)C(F)(F)F)cc1.Cl` and `C[C@@H](C(=O)NCCN1CCCC1)c1ccc(OS(=O)(=O)C(F)(F)F)cc1.Cl` are within 1.5-fold of each other in half-life: 2.4 h for the first, 3.4 h for the second.

`CC(C)Cc1ccc([C@@H](C)C(=O)NCCCN2CCCCC2)cc1` [reference compound] showed a half-life of 1.7 h.

same assay, conditions: mouse, plasma, intravenous and oral administration

Going from `C[C@@H](C(N)=O)c1ccc(OS(=O)(=O)C(F)(F)F)cc1` to `C[C@@H](C(=O)[N-]S(C)(=O)=O)c1ccc(OS(=O)(=O)C(F)(F)F)cc1.[Na+]`, the bioavailability rises from 95% to ~100%.

First: CC(C)Cc1ccc([C@@H](C)C(N)=O)cc1 [reference compound]
Second: CC(C)Cc1ccc([C@@H](C)C(=O)NS(C)(=O)=O)cc1 [reference compound]
The bioavailability of the first is lower: 35% for the first, 80% for the second.

First: C[C@@H](C(=O)NCCCN1CCCC1)c1ccc(OS(=O)(=O)C(F)(F)F)cc1.Cl
Second: C[C@@H](C(=O)NCCN1CCCC1)c1ccc(OS(=O)(=O)C(F)(F)F)cc1.Cl
The bioavailability of the first is higher: 90% for the first, 80% for the second.

Work on `CC(C)Cc1ccc([C@@H](C)C(=O)NCCCN2CCCCC2)cc1` [reference compound] yielded a bioavailability of 30%.
